Reference: patent publication US20180153952A1, “COMPOSITIONS AND METHODS FOR TREATING POST OPERATIVE COGNITIVE DYSFUNCTION AND NEUROIN[…] ANNEXIN A1 (ANXA1) PEPTIDES” (Duke University, priority 2016, published 2018)
Entries after “also recorded” stand apart in the source; their conditions may differ.

Tests used:
memory function = experiment: "What-when-where" task of object recognition memory after orthopedic surgery; type: in vivo, mice
Description: After orthopedic surgery mice have reduced preferences for the replacement of objects (what), and for the original location of the displaced object (where); but they show a […] preference the order of presentation (when). […] Data are presented as mean±SD. N=10. *P<0.05 and **P<0.01 vs. surgery+vehicle using MANOVA. (FIG. 17).

NLRP3 inflammasome = experiment: NLRP3 expression/inflammasome activation in hippocampus after orthopedic surgery (Western blot); type: in vivo, mice; details: for NLRP3 activation: ANXA1sp 1 mg/kg 30 min before surgery
Description: (§1) Representative Western Blot images in adult (12 weeks-old) and aged (20 months-old) C57BL/6 mice for NLRP3 (FIG. 18A), Caspase-1 (FIG. 18C), and IL1β (FIG. 18E) (three key components of the inflammasome complex) and quantification. […] Data are presented as mean±SD. […] One-way ANOVA with Multiple Comparisons.
Male C57BL/6 mice received ANXA1sp (1 mg/kg) 30 min before surgery. […] Data are presented as mean±SD. […] Two-way ANOVA with Multiple Comparisons.

IL-1β = IL-1β secretion in hippocampus after orthopedic surgery (Western blot); type: in vivo, mice
Description: as §1
(§2) Male C57BL/6 mice received ANXA1sp (1 mg/kg) 30 min before surgery. Representative blots of Caspase-1 activation and IL1β secretion. […] Data are presented as mean±SD. N=4-5; *P<0.05, **P<0.01, ***P<0.001. Two-way ANOVA with Multiple Comparisons.

SIRT3 = experiment: Hippocampal mitochondrial SIRT3 expression after orthopedic surgery; type: in vivo; details: mice after orthopedic surgery, time-dependent
MPO = experiment: Plasma/systemic MPO levels after orthopedic surgery; type: in vivo, mice
Description: (§3) Systemic cytokines, including IL-6, are found elevated in patients developing delirium and POCD and may serve as potential biomarkers. […] N=4-5 (adult), N=1-5 (aged); **P<0.01. Two-way ANOVA with Multiple Comparisons.

[1] = test system: cerebral microglia activation; experiment: Microglia activation after orthopedic surgery (F4/80 immunostaining, stereological analysis); type: in vivo; details: mice after orthopedic surgery, ANXA1sp 1 mg/kg 1 hr before surgery, 24 hr post-surgery, F4/80 positive cells, vs untreated animals
Description: Male C57BL/6 mice (12 weeks) were subjected to orthopedic surgery and treated with ANXA1sp (1 mg/kg) 1 hr before surgery. At 24 hr of post-surgery, brain levels of microglia activation was determined by immunostaining with a biomarker F4/80. Stereological analysis of F4/80 positive cells was shown in the bar graph. N=5 (Naïve), 10 (Surgery), and 4 (ANXA1sp). Data are presented as mean+SD. **P<0.01 vs. Naïve; #P<0.05 vs. Surgery. One-way ANOVA with Multiple Comparisons. (FIG. 13).

ANXA1 = experiment: Hippocampal/brain ANXA1 levels after orthopedic surgery; type: in vivo, mice
Description: Surgery reduced levels of endogenous ANXA1 in the brain at 24 hr (FIG. 25A, FIG. 25B for quantification). […] N=3-4; **P<0.01, ***P<0.001. One-way ANOVA with Multiple Comparisons.

[2] = test system: OXPHOS mitochondrial electron transport chain complexes; experiment: Hippocampal total OXPHOS (Western blot) after orthopedic surgery; type: in vivo; details: mice (13 weeks) after orthopedic surgery
Description: (§4) Male C57BL/6 mice (13 weeks) were subjected to orthopedic surgery. Naïve animals (no surgery at 0 hour) were used as baseline-control. At 3, 6, and 24 hours of post-surgery, the total OXPHOS in hippocampus was determined by Western blot (FIG. 23A) and (FIG. 23B). Time-dependent increased hippocampal ATP production were determined by ELISA (FIG. 23C). […] Data are presented as mean±SD. N=4; **P<0.01, ***P<0.001. One-way ANOVA with Multiple Comparisons.

[3] = test system: hippocampal ATP production; experiment: Hippocampal ATP production (ELISA) after orthopedic surgery; type: in vivo; details: mice (13 weeks) after orthopedic surgery
Description: as §4

Caspase-1 = Caspase-1 activation in hippocampus after orthopedic surgery (Western blot); type: in vivo, mice
Description: as §1, §2

citrate synthetase (CS) = experiment: Hippocampus citrate synthetase (CS, Western blot) after orthopedic surgery; type: in vivo; details: mice (13 weeks) after orthopedic surgery
Description: Male C57BL/6 mice (13 weeks) were subjected to orthopedic surgery while naïve animals were as baseline-control. At 3, 6, and 24 hours of post-surgery, the hippocampus CS was determined by Western blot (FIG. 24A) and (FIG. 24B). […] Data are presented as mean±SD. N=4; **P<0.01, ***P<0.001, ****P<0.0001. One-way ANOVA with Multiple Comparisons.

IL-6 = experiment: Systemic IL-6 after orthopedic surgery; type: in vivo; details: mice after orthopedic surgery
Description: as §3

[4] = brain (hippocampus) of mice after orthopedic surgery

Substance: Ac-Gln-Ala-Trp [ANXA1sp]
- memory deficits (what-when-where object recognition preference scores) (memory function; mice after orthopedic surgery, vs surgery+vehicle): significantly improves
- exploration of the displaced/replaced object (memory function; surgery+ANXA1sp mice, vs original anchor object and two most recently seen objects): greater exploration
- NLRP3 activation (NLRP3 inflammasome; adult and aged mice, 24 hr after surgery): significantly reduced
- NLRP3 activation (NLRP3 inflammasome; aged mice, 6 hr after surgery): significantly reduced
- NLRP3 expression or NLRP3 inflammasome activation (NLRP3 inflammasome; [4]): inhibits; also recorded: significant inhibition; also recorded: reduces
- secreted IL1β (IL-1β; adult mice after surgery, ANXA1sp 1 mg/kg 30 min before surgery): no significance
- activation of IL-1β (IL-1β; [4]): significantly inhibited
- hippocampal mitochondrial SIRT3 expression/activation (SIRT3): significantly increases/activates; also recorded: significantly higher expression
- plasma levels of meloperoxidase (MPO) (MPO; mice after orthopedic surgery, time-dependent): reduced; also recorded: significantly decreased
- systemic levels of MPO (MPO; mice, 24 hr after orthopedic surgery, listed as ANXA-1sp): reduced
- cerebral microglia activation [1]: significantly attenuated
- levels of ANXA-1 in the brain (ANXA1; 24 hr after surgery, 1 mg/kg ANXA1sp): significantly increase
- hippocampal ANXA1 levels (ANXA1; mice after orthopedic surgery): significantly increased
- hippocampal total OXPHOS, particularly complex IV [2]: significantly regulated
- hippocampal ATP production [3]: attenuated
- levels of Caspase-1 (Caspase-1; adult and aged mice after surgery, ANXA1sp 1 mg/kg 30 min before surgery): significantly reduced
- activation of caspase-1 (Caspase-1; [4]): significantly inhibited
- numbers of CS (citrate synthetase, biomarker of numbers of mitochondria) (citrate synthetase (CS)): significantly increased
- systemic IL-6 (IL-6): significantly reduced
- systemic IL-6 (IL-6; listed as ANXA-1sp): reduced
